Results from ChEMBL document CHEMBL3525983, “Pharmacokinetics, metabolism, and disposition of rivoglitazone, a novel peroxisome proliferator-activated receptor γ agonist, in rats and monkeys” (Drug Metab Dispos, 2011).

Tests used:
Rhesus monkey = test: Drug level in monkey plasma treated with [14C]rivoglitazone assessed as ratio of molar basis AUC (0 to t) at 1 mg/kg, po administered via gavage by LC-MS/MS analysis; type: ADME, organism-based, Macaca mulatta; design: dose 1 mg/kg, dosed compound name [14C]Rivoglitazone, route oral; conditions: in vivo
[1] = Drug excretion in F344/DuCrlCrlj rat feces treated with [14C]rivoglitazone at 1 mg/kg, po administered via gavage measured during 0 to 48 hrs by radio-HPLC analysis; type: ADME, organism-based; design: dose 1 mg/kg, dosed compound name [14C]Rivoglitazone, route oral; conditions: in vivo
[2] = Drug excretion in F344/DuCrlCrlj rat urine/bile treated with [14C]rivoglitazone at 1 mg/kg, po administered via gavage measured during 0 to 48 hrs by radio-HPLC analysis; type: ADME, organism-based; design: dose 1 mg/kg, dosed compound name [14C]Rivoglitazone, route oral; conditions: in vivo
Rattus norvegicus = test: Drug level in F344/DuCrlCrlj rat plasma treated with [14C]rivoglitazone assessed as ratio of molar basis AUC (0 to t) at 1 mg/kg, po administered via gavage by LC-MS/MS analysis; type: ADME, organism-based; design: dose 1 mg/kg, dosed compound name [14C]Rivoglitazone, route oral; conditions: in vivo
[3] = Drug excretion in F344/DuCrlCrlj rat urine/feces treated with [14C]rivoglitazone at 1 mg/kg, po administered via gavage measured during 0 to 48 hrs by radio-HPLC analysis; type: ADME, organism-based; design: dose 1 mg/kg, dosed compound name [14C]Rivoglitazone, route oral; conditions: in vivo
[4] = Retention time of the compound by LC-MS/MS analysis; type: physicochemical; design: dosed compound name [14C]Rivoglitazone
[5] = Drug excretion in monkey feces treated with [14C]rivoglitazone at 1 mg/kg, po administered via gavage measured during 0 to 72 hrs by radio-HPLC analysis; type: ADME, organism-based, Macaca mulatta; design: dose 1 mg/kg, dosed compound name [14C]Rivoglitazone, route oral; conditions: rhesus monkey, in vivo
[6] = Drug excretion in monkey urine/feces treated with [14C]rivoglitazone at 1 mg/kg, po administered via gavage measured during 0 to 72 hrs by radio-HPLC analysis; type: ADME, organism-based, Macaca mulatta; design: dose 1 mg/kg, dosed compound name [14C]Rivoglitazone, route oral; conditions: rhesus monkey, in vivo
[7] = Drug excretion in monkey urine treated with [14C]rivoglitazone at 1 mg/kg, po administered via gavage measured during 0 to 72 hrs by radio-HPLC analysis; type: ADME, organism-based, Macaca mulatta; design: dose 1 mg/kg, dosed compound name [14C]Rivoglitazone, route oral; conditions: rhesus monkey, in vivo
[8] = Drug excretion in F344/DuCrlCrlj rat bile treated with [14C]rivoglitazone at 1 mg/kg, po administered via gavage measured during 0 to 48 hrs by radio-HPLC analysis; type: ADME, organism-based; design: dose 1 mg/kg, dosed compound name [14C]Rivoglitazone, route oral; conditions: in vivo
[9] = Drug excretion in F344/DuCrlCrlj rat urine treated with [14C]rivoglitazone at 1 mg/kg, po administered via gavage measured during 0 to 48 hrs by radio-HPLC analysis; type: ADME, organism-based; design: dose 1 mg/kg, dosed compound name [14C]Rivoglitazone, route oral; conditions: in vivo

| Compound | AUCmet/AUCp (Rhesus monkey) | Compound recovery [1] | Compound recovery [2] | AUCmet/AUCp (Rattus norvegicus) | Compound recovery [3] | Retention_time [4] | Compound recovery [5] | Compound recovery [6] | Compound recovery [7] | Compound recovery [8] | Compound recovery [9] |
| --- | --- | --- | --- | --- | --- | --- | --- | --- | --- | --- | --- |
| Cn1c(COc2ccc(CC(C(N)=O)S(C)(=O)=O)cc2)nc2ccc(OS(=O)(=O)O)cc21 (centres undefined) |  | metabolite_not_detected | 1.3% |  |  | 13.8 min |  |  |  | 1.3% |  |
| COc1ccc2nc(COc3ccc(CC(SC(=O)N[C@@H]4O[C@H](C(=O)O)[C@@H](O)[C@H](O)[C@H]4O)C(=O)O)cc3)n(C)c2c1 (some centres undefined) | 1.53% |  |  |  |  | 17.2 min | 6.6% | 6.6% |  |  |  |
| O=C1NC(=O)C(Cc2ccc(OCc3nc4ccc(O)cc4[nH]3)cc2)S1 (centres undefined) | 0.28% |  |  |  |  | 17.8 min |  | 3.8% | 3.8% |  |  |
| Cn1c(COc2ccc(CC(SC(=O)N[C@@H]3O[C@H](C(=O)O)[C@@H](O)[C@H](O)[C@H]3O)C(=O)O)cc2)nc2ccc(O)cc21 (some centres undefined) |  |  |  |  |  | 13.9 min |  |  |  |  |  |
| CSC(Cc1ccc(OCc2nc3ccc(O)cc3n2C)cc1)C(N)=O (centres undefined) |  | 8.7% | metabolite_not_detected |  | 8.7% | 16.9 min | 2.9% | 2.9% |  |  |  |
| Cn1c(COc2ccc(CC(C(N)=O)[S+](C)[O-])cc2)nc2ccc(OS(=O)(=O)O)cc21 (centres undefined) |  | metabolite_not_detected | 3.8% |  |  | 9.9 min |  |  |  | 3.8% |  |

Second part, the compound after the results:

| AUCmet/AUCp (Rhesus monkey) | Compound recovery [1] | Compound recovery [2] | AUCmet/AUCp (Rattus norvegicus) | Compound recovery [3] | Retention_time [4] | Compound recovery [5] | Compound recovery [6] | Compound recovery [7] | Compound recovery [8] | Compound recovery [9] | Compound |
| --- | --- | --- | --- | --- | --- | --- | --- | --- | --- | --- | --- |
| 1.22% | 25.6% | metabolite_not_detected | 0.72% | 25.6% | 19 min | 18% | 18% |  |  |  | Cn1c(COc2ccc(CC3SC(=O)NC3=O)cc2)nc2ccc(O)cc21 (centres undefined) |
| 0.02% |  |  | 0.03% |  | 21.3 min | 1.7% | 2.1% | 0.4% |  |  | COc1ccc2nc(COc3ccc(CC4(O)SC(=O)NC4=O)cc3)n(C)c2c1 (centres undefined) |
| 0.25% | 3% | metabolite_not_detected | 0.01% | 3% | 24.1 min | 0.8% | 0.8% |  |  |  | COc1ccc2nc(COc3ccc(CC(SC)C(=O)O)cc3)n(C)c2c1 (centres undefined) |
| 0.05% |  |  | 0.01% |  | 20.9 min |  |  |  |  |  | COc1ccc2nc(COc3ccc(CC(SC)C(N)=O)cc3)n(C)c2c1 (centres undefined) |
| 0.03% |  |  |  |  | 16.8 min |  |  |  |  |  | COc1ccc2nc(COc3ccc(CC(SSCC(N)C(=O)O)C(=O)O)cc3)n(C)c2c1 (centres undefined) |
|  | metabolite_not_detected | 1.5% |  |  | 15.1 min |  | 2.6% | 2.6% | 1.5% |  | Cn1c(COc2ccc(CC3SC(=O)NC3=O)cc2)nc2ccc(O[C@@H]3O[C@H](C(=O)O)[C@@H](O)[C@H](O)[C@H]3O)cc21 (some centres undefined) |
| 7.01% |  |  | 0.02% |  | 21.5 min |  |  |  |  |  | COc1ccc2nc(COc3ccc(CC4SC(=O)NC4=O)cc3)[nH]c2c1 (centres undefined) |
| 0.11% | metabolite_not_detected | 4.5% | 0.08% | 3.9% | 16.1 min |  |  |  | 0.6% | 3.9% | COc1ccc2nc(COc3ccc(CC(C(N)=O)[S+](C)[O-])cc3)n(C)c2c1 (centres undefined) |
| 2.15% | metabolite_not_detected | 1% |  |  | 19.8 min |  | 1.4% | 1.4% | 1% |  | COc1ccc2nc(COc3ccc(CC4SC(=O)N([C@@H]5O[C@H](C(=O)O)[C@@H](O)[C@H](O)[C@H]5O)C4=O)cc3)n(C)c2c1 (some centres undefined) |
